According to patent US5591758A, “Organic nitrates, processes for their preparation and their use in the treatment of cardiovascular diseases” (Laboratoires Hoechst, SA, priority 1991, dated 1997):
pIC50: −log10 of the molar value. Structures can show the parent of a compound that is named as a salt. Each block holds one compound with its values, some of them ahead of it.

Assays:
thoracic aorta = test: Vasorelaxant effect on isolated vessels (rat thoracic aorta rings without endothelium, precontracted with noradrenalin); set-up: species or system Wistar rats; settings: for Emax: Rattus norvegicus, maximum inhibition of noradrenalin effect, 10^-8 to 10^-4 M substance, read-out: Maximum Relaxation; for pIC50: rat aorta, 10^-7 M noradrenalin contraction
Description: Vasorelaxant effect of the compounds according to the invention on isolated vessels.
Adult Wistar rats weighing between 250 and 350 g are anaesthetised by intraperitoneal injection of sodium pentobarbital (30 mg/kg). The thoracic aorta is rapidly removed and placed in a refrigerated and oxygenated solution of bicarbonate buffer of the Krebs-Ringer type (composition [mM]: NaCl, 118; KCl, 4.7; CaCl2, 2.5; MgSO4, 1.2; KH2 PO4, 1.2; NaHCO3, 25.0; disodium calcium salt of EDTA, 0.026; glucose 11.1). The aorta is dissected with the aim of removing the connective tissue and then cut into 6 rings (length 5-10 mm). The endothelium is removed by moderate abrasion of the intimal surface of the aortic segments with the aid of a pair of tweezers. These segments are then placed between two hooks in an isolated organ cell filled with 25 ml of bicarbonate buffer (pH 7.4), thermostat-controlled at 37° C. and oxygenated with the aid of a 95% O2 /5% CO2 mixture (pH 7.4). One of the hooks is fixed to a fixed point, while the second is connected to a transducer with the aim of measuring the variations in isometric voltage (expressed in grams). After an equilibration period of 30 min., the segments are progressively withdrawn so as to attain the level of base voltage for which the contractor response to noradrenalin (10^-7 M) is maximum (optimum voltage; average 2 g). The absence of endothelium is verified by addition of a single concentration of acetylcholine (10^-6 M), after precontraction of the vessels by noradrenalin (10^-7 M). The integrity of the vascular smooth muscle is also verified by adding a single concentration of a vasodilator whose response is independent of the presence of the endothelium, SIN-1 (10^-5 M). After this initial procedure, the aortas are washed, equilibrated for a period of 30 min and then recontracted (10^-7 M noradrenalin). The relaxant effect of the substance to be tested is then evaluated by adding increasing concentrations of this substance (from 10^-8 to 10^-4 M). The maximum inhibition of the concentration caused by noradrenalin (expressed as a percentage) is then calculated ("maximum relaxation"). When this maximum relaxation is greater than 50%, the concentration of substance tested producing a 50% inhibition of the maximum contraction (IC50) is calculated. Table V below collates the IC50 and the maximum relaxation percentages for the various compounds tested.

anesthetised dogs = test: Haemodynamic effects on anesthetised dogs; format: in vivo, dogs (labrador/harrier cross); settings: dogs
Description: Haemodynamic effects of the compounds according to the invention on anesthetised pigs or dogs
The dogs, weighing between 16 and 26 kg, are the progeny of a labrador/harrier cross.
In the case of dogs the anesthesia is induced by sodium pentobarbitol (45 mg/jg i.v.) and maintained with an i.v. perfusion (flow rate of 8 mg/kg/h).
The pigs or dogs are placed under artificial respiration in ambient air. Analysis of the blood gases (pO2, pCO2) is carried out at regular intervals and oxygen can be supplied via the respirator, if necessary.
The haemodynamic parameters recorded include the left ventricular pressure (LVP; Millar PC350 Tip catheter inserted via the carotid artery), systemic blood pressure (BPs, BPd; full catheter in a femoral artery), the end pressure of the left ventricular diastole (LVEDP), the ventricular contractility (LVPdp/dtmax) and the heart rate (HR).
Following an equilibration period of the order of 45 minutes, the compounds studied are administered intraduodenally (i.d.) or intraveinously (i.v.) to several animals (1 to 4). The haemodynamic variables are recorded continuously for 1 to 3 hours, as a function of the period of action of the compound.
The effects of the compounds studied are shown as the absolute difference with respect to the base value (bv) measured before administration of the compounds and are shown in Table VII (a,b,c).
An antianginal activity is estimated by a fall in the BPs and the LVEDP (fall in venous return).

SMILES: O=C(N[C@H]1CO[C@H]2[C@@H]1OC[C@@H]2O[N+](=O)[O-])[C@@H]1CSCN1C(=O)[C@@H]1CSCN1 [Compound 78, 5-[[[(4R)-N-[(4-L-thiazolidinyl)carbonyl]-4-thiazolidinyl]carbonyl]amino]-5-deoxy-2-O-nitro-1,4:3,6-dianhydro-L-iditol monohydrochloride]
- Emax (thoracic aorta): 89%
- pIC50 (thoracic aorta): 4.70
- BPs (min), period of action (anesthetised dogs; 3 mg/kg i.d.): 150 min
- BPs, difference to base value (anesthetised dogs; 3 mg/kg i.d.): -13 mmHg
- LVEDP (min), period of action (anesthetised dogs; 3 mg/kg i.d.): 90 min
- LVEDP, difference to base value (anesthetised dogs; 3 mg/kg i.d.): -1,0 mmHg

SMILES: CC(C)[C@H](NC(=O)[C@@H]1CSCN1C(=O)OC(C)(C)C)C(=O)N[C@H]1CO[C@H]2[C@@H]1OC[C@@H]2O[N+](=O)[O-] [Compound 63, 5-[[2-[[(3-t-butoxycarbonyl-4-L-thiazolidinyl)carbonyl]amino]-1-((2S)-2-isopropyl)-oxoethyl]amino]-5-deoxy-2-O-nitro-1,4:3,6-dianhydro-L-iditol]
- Emax (thoracic aorta): 70%
- pIC50 (thoracic aorta): 4.15
- BPs (min), period of action (anesthetised dogs; 3 mg/kg i.v.): > 60 min
- BPs, difference to base value (anesthetised dogs; 3 mg/kg i.v.): -20 mmHg
- LVEDP (min), period of action (anesthetised dogs; 3 mg/kg i.v.): 60 min
- LVEDP, difference to base value (anesthetised dogs; 3 mg/kg i.v.): -1,0 mmHg

SMILES: CC(=O)NCSC[C@H](N)C(=O)N[C@H]1CO[C@H]2[C@@H]1OC[C@H]2O[N+](=O)[O-] [Compound 42, S-[(Acetylamino)methyl]-L-cysteine amide of 2-amino-2-deoxy-5-O-nitro-1,4:3,6-dianhydro-D-glucitol monohydrochloride]
- Emax (thoracic aorta): 92%
- pIC50 (thoracic aorta): 4.48
- BPs (min), period of action (anesthetised dogs; 10 mg/kg i.v.): > 90 min
- BPs, difference to base value (anesthetised dogs; 10 mg/kg i.v.): -10 mmHg
- LVEDP (min), period of action (anesthetised dogs; 10 mg/kg i.v.): 0 min
- LVEDP, difference to base value (anesthetised dogs; 10 mg/kg i.v.): 0,0 mmHg

SMILES: CC(C)(C)OC(=O)N1CSC[C@H]1C(=O)NCC(=O)O[C@H]1CO[C@H]2[C@@H]1OC[C@H]2O[N+](=O)[O-] [Compound 72, 2-O-[2-[[(3-t-butoxycarbonyl-4-L-thiazolidinyl)carbonyl]amino]-1-oxoethyl]-5-O-nitro-1,4:3,6-dianhydro-D-glucitol]
- Emax (thoracic aorta): 67%
- pIC50 (thoracic aorta): 4.19
- BPs (min), period of action (anesthetised dogs; 10 mg/kg i.v.): 0 min
- BPs, difference to base value (anesthetised dogs; 10 mg/kg i.v.): 0 mmHg
- LVEDP (min), period of action (anesthetised dogs; 10 mg/kg i.v.): 0 min
- LVEDP, difference to base value (anesthetised dogs; 10 mg/kg i.v.): 0,0 mmHg

SMILES: CC(C)(C)OC(=O)NCC(=O)N[C@H]1CO[C@H]2[C@@H]1OC[C@H]2O[N+](=O)[O-] [Compound 15, N-[(t-Butoxy)carbonyl]glycine amide of 2-amino-2-deoxy-5-O-nitro-1,4:3,6-dianhydro-D-glucitol]
- Emax (thoracic aorta): 58%
- pIC50 (thoracic aorta): 4.22
- BPs (min), period of action (anesthetised dogs; 3 mg/kg i.d.): > 180 min
- BPs, difference to base value (anesthetised dogs; 3 mg/kg i.d.): -20 mmHg
- LVEDP (min), period of action (anesthetised dogs; 3 mg/kg i.d.): > 180 min
- LVEDP, difference to base value (anesthetised dogs; 3 mg/kg i.d.): -3,0 mmHg

SMILES: CC(C)(C)OC(=O)N[C@@H](CSSc1ccccc1[N+](=O)[O-])C(=O)N[C@H]1CO[C@H]2[C@@H]1OC[C@@H]2O[N+](=O)[O-] [Compound 35, S-[(2-Nitrophenyl)thio]-N-[(t-butoxy)carbonyl]-L-cysteine amide of 5-amino-5-deoxy-2-O-nitro-1,4:3,6-dianhydro-L-iditol]
- Emax (thoracic aorta): 46%
- pIC50 (thoracic aorta): 4.00
- BPs (min), period of action (anesthetised dogs; 3 mg/kg i.v.): > 30 min
- BPs, difference to base value (anesthetised dogs; 3 mg/kg i.v.): -10 mmHg
- LVEDP (min), period of action (anesthetised dogs; 3 mg/kg i.v.): 0 min
- LVEDP, difference to base value (anesthetised dogs; 3 mg/kg i.v.): 0,0 mmHg

SMILES: CC(C)(C)OC(=O)N1CSC[C@H]1C(=O)O[C@@H]1CO[C@H]2[C@@H]1OC[C@@H]2O[N+](=O)[O-] [Compound 24, 5-O-[(3-t-Butoxycarbonyl-4-L-thiazolidinyl)carbonyl]-2-O-nitro-1,4:3,6-dianhydro-D-glucitol]
- Emax (thoracic aorta): 100%
- pIC50 (thoracic aorta): 4.70
- BPs (min), period of action (anesthetised dogs; 3 mg/kg i.v.): > 30 min
- BPs, difference to base value (anesthetised dogs; 3 mg/kg i.v.): -10 mmHg
- LVEDP (min), period of action (anesthetised dogs; 3 mg/kg i.v.): 10 min
- LVEDP, difference to base value (anesthetised dogs; 3 mg/kg i.v.): 1,0 mmHg

SMILES: CC(=O)NCSC[C@H](NC(=O)OC(C)(C)C)C(=O)N[C@H]1CO[C@H]2[C@@H]1OC[C@H]2O[N+](=O)[O-] [Compound 41, S-[(Acetylamino)methyl]-N-[(t-butoxy)carbonyl]-L-cysteine amide of 2-amino-2-deoxy-5-O-nitro-1,4:3,6-dianhydro-D-glucitol]
- Emax (thoracic aorta): 70%
- pIC50 (thoracic aorta): 4.20
- BPs (min), period of action (anesthetised dogs; 3 mg/kg i.d.): > 180 min
- BPs, difference to base value (anesthetised dogs; 3 mg/kg i.d.): -25 mmHg
- LVEDP (min), period of action (anesthetised dogs; 3 mg/kg i.d.): 0 min
- LVEDP, difference to base value (anesthetised dogs; 3 mg/kg i.d.): 0,0 mmHg

Further lines, with some results ahead:

- pIC50 (thoracic aorta): 4.00
SMILES: CC(=O)NCSC[C@H](N)C(=O)O[C@H]1CO[C@H]2[C@@H]1OC[C@H]2O[N+](=O)[O-] [Compound 21, S-[(Acetylamino)methyl]-L-cysteine ester of 5-O-nitro-1,4:3,6-dianhydro-D-glucitol monohydrochloride]
- Emax (thoracic aorta): 31%
- BPs (min), period of action (anesthetised dogs; 3 mg/kg i.d.): > 60 min
- BPs, difference to base value (anesthetised dogs; 3 mg/kg i.d.): -5 mmHg
- LVEDP (min), period of action (anesthetised dogs; 3 mg/kg i.d.): > 60 min
- LVEDP, difference to base value (anesthetised dogs; 3 mg/kg i.d.): -2,0 mmHg

- pIC50 (thoracic aorta): < 4.00
SMILES: O=C(O[C@H]1CO[C@H]2[C@@H]1OC[C@H]2O[N+](=O)[O-])[C@@H]1CSCN1 [Compound 19, 2-O-[(4-L-Thiazolidinyl)carbonyl]-5-O-nitro-1,4:3,6-dianhydro-D-glucitol monohydrochloride]
- Emax (thoracic aorta): 40%
- BPs (min), period of action (anesthetised dogs; 10 mg/kg i.v.): > 60 min
- BPs, difference to base value (anesthetised dogs; 10 mg/kg i.v.): -35 mmHg
- LVEDP (min), period of action (anesthetised dogs; 10 mg/kg i.v.): 0 min
- LVEDP, difference to base value (anesthetised dogs; 10 mg/kg i.v.): 0,0 mmHg

- pIC50 (thoracic aorta): 4.85
SMILES: O=C(N[C@H]1CO[C@H]2[C@@H]1OC[C@@H]2O[N+](=O)[O-])[C@@H]1CCCN1 [Compound 14, L-Proline amide of 5-amino-5-deoxy-2-O-nitro-1,4:3,6-dianhydro-L-iditol monohydrochloride]
- Emax (thoracic aorta): 98%
- BPs (min), period of action (anesthetised dogs; 3 mg/kg i.v.): > 90 min
- BPs, difference to base value (anesthetised dogs; 3 mg/kg i.v.): -10 mmHg
- LVEDP (min), period of action (anesthetised dogs; 3 mg/kg i.v.): > 90 min
- LVEDP, difference to base value (anesthetised dogs; 3 mg/kg i.v.): -2,0 mmHg

- pIC50 (thoracic aorta): 4.46
SMILES: O=C(N[C@H]1CO[C@H]2[C@@H]1OC[C@@H]2O[N+](=O)[O-])[C@@H]1CCCN1C(=O)[C@@H]1CSCN1 [Compound 70, 5-[[[(2S)-N-[(4-L-thiazolidinyl)carbonyl]-2-pyrrolidinyl]carbonyl]amino]-5-deoxy-2-O-nitro-1,4:3,6-dianhydro-L-iditol monohydrochloride]
- Emax (thoracic aorta): 83%
- BPs (min), period of action (anesthetised dogs; 3 mg/kg i.d.): > 90 min
- BPs, difference to base value (anesthetised dogs; 3 mg/kg i.d.): -30 mmHg
- LVEDP (min), period of action (anesthetised dogs; 3 mg/kg i.d.): 0 min
- LVEDP, difference to base value (anesthetised dogs; 3 mg/kg i.d.): 0,0 mmHg
